Where a SMILES comes first, the peptide text is derived from it. Bridges are numbered along the chain shown (N, C = ends). [ ]: non-standard residue; d: D form. Arg(NO2) = N=C(NCCC[C@H](N)C(=O)O)N[N+](=O)[O-] Some results are limits rather than exact numbers.

Assay [1] has as its target human MCH-R2 (Homo sapiens, UniProt Q969V1). Briefly: Aequorin bioluminescence functional assay, MCH-2R. The conditions noted are these: aequorin functional assay; for MCH-2R Activation %: % Activation at 10 μM; for EC50: MCH-2R EC50 (nM).
Experimental: (§1) The aequorin bioluminescence assay can be used to measure the activity of G protein-coupled receptors that couple through the Gα protein subunit family consisting of Gq and G11. Such coupling leads to phospholipase C activation, intracellular calcium mobilization and protein kinase C activation.
(§2) Following approximately 40 hours of expression the apo-aequorin in the cells was charged for 4 hours with coelenterazine (10 μM) under reducing conditions (300 μM reduced glutathione) in ECB buffer (140 mM NaCl, 20 mM KCl, 20 mM HEPES-NaOH [pH=7.4], 5 mM glucose, 1 mM MgCl2, 1 mM CaCl2, 0.1 mg/ml bovine serum albumin).
(§3) The cells were harvested, washed once in ECB medium and resuspended to 500,000 cells/ml. 100 μl of cell suspension (corresponding to 5×10^4 cells) was then injected into the test plate containing MCH or MCH analogs, and the integrated light emission was recorded over 30 seconds, in 0.5 second units. 20 μL of lysis buffer (0.1% final Triton X-100 concentration) was then injected and the integrated light emission recorded over 10 seconds, in 0.5 second units. The “fractional response” values for each well were calculated by taking the ratio of the integrated response to the initial challenge to the total integrated luminescence including the Triton X-100 lysis response.
Assay [2] deals with T1, human MCH-1R (Homo sapiens, UniProt Q99705). As to the kind of experiment: Aequorin bioluminescence functional assay, MCH-1R. Particulars: for MCH-1R Activation %: % Activation at 10 μM, aequorin functional assay.
Experimental: as §1, §2, §3
In assay [3] the target is T1, human MCH-1R. Briefly: Radiolabeled MCH-R binding assay (SPA based), MCH-1R.
Experimental: (§4) Cell membranes were prepared on ice. Each T-75 flask was rinsed twice with 10 ml of Enzyme-free Cell Dissociation Buffer (Specialty Media, Lavallette, N.J.), and the cell monolayer was detached in an additional 10 ml of Enzyme-free Cell Dissociation Buffer by incubation at room temperature for 10 minutes. Dissociated cells were centrifuged (500×g for 10 minutes at 4° C.), resuspended in 5 ml homogenization buffer (10 mM Tris-HCl, pH 7.4, 0.01 mM Pefabloc, 10 μM phosphoramidon, 40 μg/ml bacitracin) and then homogenized using a glass homogenizer (10-15 strokes). The homogenate was centrifuged for 10 minutes (1,000×g at 4° C.). The resulting supernatant was then centrifuged at 38,700×g for 15 minutes at 4° C. Pelleted membranes were resuspended (passed through 25 gauge needle 5 times), snap-frozen on liquid nitrogen, and stored at −80° C. until use.
(§5) For the SPA-based assay, WGA-PVT beads (NEN Life Sciences Products) were resuspended in Dulbecco's PBS with calcium and magnesium (500 mg beads in 4 ml PBS). […] The suspension was mixed gently for 20 minutes, 12.3 ml of assay buffer and protease inhibitors were added (final concentration given): 2 μg/ml leupeptin, 10 μM phosphoramidon, 40 μg/ml bacitracin, 5 μg/ml aprotinin, 0.1 mM Pefabloc.
(§6) Coated beads were kept on ice until use. […] Binding reactions were allowed to proceed at room temperature for 3 hours. Quantitation was performed by scintillation counting (TopCount device).
For assay [4], the target named is human MCH-2R (Homo sapiens, UniProt Q969V1). As to the kind of experiment: Radiolabeled MCH-R binding assay (SPA based), MCH-2R. Particulars: MCH-2R IC50 (nM).
human MCH-2R, sequence (Q969V1 whole entry): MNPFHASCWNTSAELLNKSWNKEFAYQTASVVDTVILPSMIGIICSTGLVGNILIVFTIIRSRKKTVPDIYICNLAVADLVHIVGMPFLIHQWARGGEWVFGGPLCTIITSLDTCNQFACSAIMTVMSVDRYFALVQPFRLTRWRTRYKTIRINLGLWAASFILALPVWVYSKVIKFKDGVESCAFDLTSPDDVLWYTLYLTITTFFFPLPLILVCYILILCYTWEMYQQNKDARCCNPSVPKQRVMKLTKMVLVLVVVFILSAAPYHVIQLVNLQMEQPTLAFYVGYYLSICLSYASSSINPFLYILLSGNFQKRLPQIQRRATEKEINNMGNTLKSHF
Experimental: as §4, §5, §6

human MCH-R2, sequence (Q969V1 whole entry): as above
T1 sequence (Q99705 whole entry): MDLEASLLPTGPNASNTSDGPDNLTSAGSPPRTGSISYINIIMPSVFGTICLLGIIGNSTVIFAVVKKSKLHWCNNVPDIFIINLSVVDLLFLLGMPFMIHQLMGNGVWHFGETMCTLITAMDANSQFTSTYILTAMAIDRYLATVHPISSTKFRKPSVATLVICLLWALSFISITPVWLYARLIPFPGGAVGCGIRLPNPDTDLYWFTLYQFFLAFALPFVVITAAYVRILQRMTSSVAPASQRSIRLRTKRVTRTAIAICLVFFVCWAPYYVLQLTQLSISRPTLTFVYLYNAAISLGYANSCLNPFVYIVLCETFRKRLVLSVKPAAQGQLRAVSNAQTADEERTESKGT

As to `CSCC[C@@H]1NC(=O)[C@@H](NC(=O)[C@H](CCCNC(=N)N)NC(C)=O)CSSC[C@@H](C(N)=O)NC(=O)[C@@H]2CCCN2C(=O)[C@H](CCCNC(=N)N)NC(=O)[C@H](Cc2ccc(O)cc2)NC(=O)[C@H](C(C)C)NC(=O)[C@H](CCCNC(=N)N[N+](=O)[O-])NC(=O)[C@@H](C)NC(=O)[C@H](CC(C)C)NC1=O` [compound 37] (Ac-RCML[dA][Arg(NO2)]VYRPC-NH2; disulfide 2-11), in assay [1] (Table 1), the “MCH-2R Activation %” value came out at 34%. The same compound displayed an EC50 in assay [2] of over 10000 nM. Besides, in assay [2] (Table 1), the “MCH-1R Activation %” value is 0.1%. Further, the IC50 in assay [3] is over 1000 nM.

For the compound `CSCC[C@@H]1NC(=O)[C@@H](NC(=O)[C@@H](N)CCCNC(=N)N)CSSC[C@@H](C(N)=O)NC(=O)[C@@H]2CCCN2C(=O)[C@H](CCCNC(=N)N)NC(=O)[C@H](Cc2ccc(O)cc2)NC(=O)[C@H](C(C)C)NC(=O)[C@H](CCCNC(=N)N)NC(=O)CNC(=O)[C@H](CC(C)C)NC1=O` [compound 39], the EC50 in assay [1] (Table 2) stood at 11.6 nM; in assay [2] it was 14 nM. Moreover, the “MCH-2R Activation %” value in assay [1] (Table 2) is recorded as 109%. For the same compound, the “MCH-1R Activation %” value in assay [2] (Table 2) was found to be 106%. For the same compound, the values for the concentration for half-maximal inhibition (IC50) in assay [3] and in assay [4] (Table 2) were 0.13 nM and 11 nM, respectively.

For the compound `CSCC[C@H](NC(=O)[C@H](C)NC(=O)[C@H](Cc1ccccc1)NC(=O)[C@@H](N)CC(=O)O)C(=O)N[C@@H](CC(C)C)C(=O)N[C@@H](CCCNC(=N)N)C(=O)N[C@H]1CSSC[C@@H](C(=O)N[C@@H](Cc2c[nH]c3ccccc23)C(=O)N[C@@H](CCC(N)=O)C(=O)N[C@H](C(=O)O)C(C)C)NC(=O)[C@@H]2CCCN2C(=O)[C@H](CCCNC(=N)N)NC(=O)[C@H](Cc2ccc(O)cc2)NC(=O)[C@H](C(C)C)NC(=O)[C@H](CCCNC(=N)N)NC(=O)CNC(=O)[C@H](CC(C)C)NC(=O)[C@H](CCSC)NC1=O` [compound 43] (H-DFAMLRCMLGRVYRPCWQV-OH; disulfide 7-16; N-terminus and C-terminus assumed), the “MCH-2R Activation %” value in assay [1] (Table 3) is listed as 95%. The “MCH-1R Activation %” value in assay [2] (Table 3) is reported as 97%. The compound further showed an IC50 in assay [3] of 0.5 nM.

Regarding `CSCC[C@@H]1NC(=O)[C@@H](NC(=O)[C@H](CCCNC(=N)N)NC(=O)[C@H](CC(C)C)NC(=O)[C@H](C)NC(=O)[C@H](CC(=O)O)NC(=O)[C@H](Cc2ccccc2)NC(=O)[C@@H](N)CC(=O)O)CSSC[C@@H](C(=O)N[C@@H](Cc2c[nH]c3ccccc23)C(=O)N[C@@H](CCC(N)=O)C(=O)N[C@H](C(=O)O)C(C)C)NC(=O)[C@@H]2CCCN2C(=O)[C@H](CCCNC(=N)N)NC(=O)[C@H](Cc2ccc(O)cc2)NC(=O)[C@H](C(C)C)NC(=O)[C@H](CCCNC(=N)N)NC(=O)CNC(=O)[C@H](CC(C)C)NC1=O` [compound 44] (H-DFDALRCMLGRVYRPCWQV-OH; disulfide 7-16; N-terminus and C-terminus assumed), the “MCH-2R Activation %” value in assay [1] (Table 3) amounted to 100%. Further, the “MCH-1R Activation %” value in assay [2] (Table 3) was found to be 97%. This compound also had an IC50 in assay [3] of 0.5 nM.

For `CSCC[C@H](NC(=O)[C@H](CC(=O)O)NC(=O)[C@H](Cc1ccccc1)NC(=O)[C@@H](N)CC(=O)O)C(=O)N[C@@H](C)C(=O)N[C@@H](CCCNC(=N)N)C(=O)N[C@H]1CSSC[C@@H](C(=O)N[C@@H](Cc2c[nH]c3ccccc23)C(=O)N[C@@H](CCC(N)=O)C(=O)N[C@H](C(=O)O)C(C)C)NC(=O)[C@@H]2CCCN2C(=O)[C@H](CCCNC(=N)N)NC(=O)[C@H](Cc2ccc(O)cc2)NC(=O)[C@H](C(C)C)NC(=O)[C@H](CCCNC(=N)N)NC(=O)CNC(=O)[C@H](CC(C)C)NC(=O)[C@H](CCSC)NC1=O` [compound 45] (H-DFDMARCMLGRVYRPCWQV-OH; disulfide 7-16; N-terminus and C-terminus assumed), the “MCH-2R Activation %” value in assay [1] (Table 3) is 94%. In addition, the “MCH-1R Activation %” value in assay [2] (Table 3) was 96%. In addition, the IC50 in assay [3] worked out at 0.3 nM; in assay [4] (Table 3) it was 2 nM.

In the case of `CSCC[C@@H]1NC(=O)[C@@H](NC(=O)[C@H](CCCNC(=N)N)NC(=O)[C@H](CC(C)C)NC(=O)[C@H](CCSC)NC(=O)[C@H](CC(=O)O)NC(=O)[C@H](Cc2ccccc2)NC(=O)[C@@H](N)CC(=O)O)CSSC[C@@H](C(=O)N[C@@H](Cc2c[nH]c3ccccc23)C(=O)N[C@@H](CCC(N)=O)C(=O)N[C@H](C(=O)O)C(C)C)NC(=O)[C@@H]2CCCN2C(=O)[C@H](CCCNC(=N)N)NC(=O)[C@H](Cc2ccc(O)cc2)NC(=O)[C@H](C(C)C)NC(=O)[C@H](CCCNC(=N)N)NC(=O)CNC(=O)[C@H](C)NC1=O` [compound 48] (H-DFDMLRCMAGRVYRPCWQV-OH; disulfide 7-16; N-terminus and C-terminus assumed), in assay [1] (Table 3), the “MCH-2R Activation %” value is given as 92%. Besides, the “MCH-1R Activation %” value in assay [2] (Table 3) is reported as 96%. The IC50 in assay [3] came to 0.9 nM; in assay [4] (Table 3) it was 9.5 nM.

In the case of `CSCC[C@@H]1NC(=O)[C@@H](NC(=O)[C@H](CCCNC(=N)N)NC(=O)[C@H](CC(C)C)NC(=O)[C@H](CCSC)NC(=O)[C@H](CC(=O)O)NC(=O)[C@H](Cc2ccccc2)NC(=O)[C@@H](N)CC(=O)O)CSSC[C@@H](C(=O)N[C@@H](Cc2c[nH]c3ccccc23)C(=O)N[C@@H](CCC(N)=O)C(=O)N[C@H](C(=O)O)C(C)C)NC(=O)[C@@H]2CCCN2C(=O)[C@H](CCCNC(=N)N)NC(=O)[C@H](Cc2ccc(O)cc2)NC(=O)[C@H](C)NC(=O)[C@H](CCCNC(=N)N)NC(=O)CNC(=O)[C@H](CC(C)C)NC1=O` [compound 50] (H-DFDMLRCMLGRAYRPCWQV-OH; disulfide 7-16; N-terminus and C-terminus assumed), the “MCH-2R Activation %” value in assay [1] (Table 3) was 98%. Further, the “MCH-1R Activation %” value in assay [2] (Table 3) amounted to 95%. Besides, the IC50 in assay [3] was 0.9 nM; in assay [4] (Table 3) it was 25 nM.

As for `CSCC[C@@H]1NC(=O)[C@@H](NC(=O)[C@H](CCCNC(=N)N)NC(=O)[C@H](CC(C)C)NC(=O)[C@H](CCSC)NC(=O)[C@H](CC(=O)O)NC(=O)[C@H](Cc2ccccc2)NC(=O)[C@@H](N)CC(=O)O)CSSC[C@@H](C(=O)N[C@@H](Cc2c[nH]c3ccccc23)C(=O)N[C@@H](CCC(N)=O)C(=O)N[C@H](C(=O)O)C(C)C)NC(=O)[C@@H]2CCCN2C(=O)[C@H](C)NC(=O)[C@H](Cc2ccc(O)cc2)NC(=O)[C@H](C(C)C)NC(=O)[C@H](CCCNC(=N)N)NC(=O)CNC(=O)[C@H](CC(C)C)NC1=O` [compound 52] (H-DFDMLRCMLGRVYAPCWQV-OH; disulfide 7-16; N-terminus and C-terminus assumed), in assay [1] (Table 3), the EC50 amounted to 187 nM and the “MCH-2R Activation %” value was 81%. Further, in assay [2] (Table 3), the “MCH-1R Activation %” value worked out at 97%. In assay [3], this compound gave an IC50 of 1.4 nM.

Regarding `CSCC[C@@H]1NC(=O)[C@@H](NC(=O)[C@H](CCCNC(=N)N)NC(=O)[C@H](CC(C)C)NC(=O)[C@H](CCSC)NC(=O)[C@H](CC(=O)O)NC(=O)[C@H](Cc2ccccc2)NC(=O)[C@@H](N)CC(=O)O)CSSC[C@@H](C(=O)N[C@@H](Cc2ccc(O)cc2)C(=O)N[C@@H](CCC(N)=O)C(=O)N[C@H](C(=O)O)C(C)C)NC(=O)[C@@H]2CCCN2C(=O)[C@H](CCCNC(=N)N)NC(=O)[C@H](Cc2ccccc2)NC(=O)[C@H](C(C)C)NC(=O)[C@H](CCCNC(=N)N)NC(=O)CNC(=O)[C@H](CC(C)C)NC1=O` [compound 57] (H-DFDMLRCMLGRVFRPCYQV-OH; disulfide 7-16; N-terminus and C-terminus assumed), in assay [1] (Table 3), the EC50 came to 1.5 nM and the “MCH-2R Activation %” value worked out at 92%. The “MCH-1R Activation %” value in assay [2] (Table 3) is 97%. Further, the IC50 in assay [3] was determined as 0.6 nM.

Source of the values: patent US7314861B2, “Melanin-concentrating hormone analogs” (priority 2001, dated 2008).
